According to article PMC11890623, “Pseudomonas aeruginosa acyl-CoA dehydrogenases and structure-guided inversion of their substrate specificity” (Nature Communications, 2025):

Key:
FadE1 = biological target: T1, FadE1 (Pseudomonas aeruginosa, UniProt Q9I612); experiment: X-ray crystal structure, […] Å; format: binding
T1 construct: gene PA0506; full-length ORF, His6 tag removed by TEV

FadE2 = biological target: T2, FadE2 (Pseudomonas aeruginosa, UniProt Q9I610); experiment: X-ray crystal structure, […] Å; format: binding
T2 construct: gene PA0508; full-length ORF, His6 tag removed by TEV
T2 sequence (Q9I610 entry or part of it): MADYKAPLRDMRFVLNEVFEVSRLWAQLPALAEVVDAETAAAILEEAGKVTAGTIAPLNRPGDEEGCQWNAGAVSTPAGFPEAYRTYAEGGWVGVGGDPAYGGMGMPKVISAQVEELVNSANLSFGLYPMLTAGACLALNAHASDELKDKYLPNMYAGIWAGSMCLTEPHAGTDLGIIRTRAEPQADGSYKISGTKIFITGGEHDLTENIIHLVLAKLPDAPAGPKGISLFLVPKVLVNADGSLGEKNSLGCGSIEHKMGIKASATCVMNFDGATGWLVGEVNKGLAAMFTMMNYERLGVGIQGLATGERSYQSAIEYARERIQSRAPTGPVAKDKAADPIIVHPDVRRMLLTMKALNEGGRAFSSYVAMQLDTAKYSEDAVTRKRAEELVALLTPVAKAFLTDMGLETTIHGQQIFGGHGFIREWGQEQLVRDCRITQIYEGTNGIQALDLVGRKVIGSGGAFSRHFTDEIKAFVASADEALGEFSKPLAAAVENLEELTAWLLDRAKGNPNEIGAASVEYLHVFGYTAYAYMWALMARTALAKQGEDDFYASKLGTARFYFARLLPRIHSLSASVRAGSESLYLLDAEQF

T1 sequence (Q9I612 entry or part of it): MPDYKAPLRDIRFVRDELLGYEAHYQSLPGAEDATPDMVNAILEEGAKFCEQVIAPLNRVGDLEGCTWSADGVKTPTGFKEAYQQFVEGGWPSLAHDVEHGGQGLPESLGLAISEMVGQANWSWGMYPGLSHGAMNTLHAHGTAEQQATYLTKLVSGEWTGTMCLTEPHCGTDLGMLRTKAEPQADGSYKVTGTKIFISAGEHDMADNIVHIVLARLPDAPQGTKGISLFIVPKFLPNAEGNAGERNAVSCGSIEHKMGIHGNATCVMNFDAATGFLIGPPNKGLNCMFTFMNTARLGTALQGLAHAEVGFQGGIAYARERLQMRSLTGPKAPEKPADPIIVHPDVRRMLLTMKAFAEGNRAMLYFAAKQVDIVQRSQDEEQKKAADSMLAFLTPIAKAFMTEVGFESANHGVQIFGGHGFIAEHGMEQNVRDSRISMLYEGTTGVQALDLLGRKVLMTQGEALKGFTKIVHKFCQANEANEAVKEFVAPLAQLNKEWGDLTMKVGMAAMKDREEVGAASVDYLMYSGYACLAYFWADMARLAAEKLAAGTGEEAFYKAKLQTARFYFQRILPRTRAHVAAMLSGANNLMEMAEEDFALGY

Structure (SMILES): Cc1cc2nc3c(=O)[nH]c(=O)nc-3n(C[C@H](O)[C@H](O)[C@H](O)COP(=O)(O)OP(=O)(O)OC[C@H]3O[C@@H](n4cnc5c(N)ncnc54)[C@H](O)[C@@H]3O)c2cc1C [FAD]
- X-ray crystal structure, 2.08 Å (FadE1): One FAD molecule was bound in each protomer of FadE1 and FadE2.
- X-ray crystal structure, 1.94 Å (FadE2): One FAD molecule was bound in each protomer of FadE1 and FadE2.
